# Experimental data from patent US20240150279A1, “C PRIME AGENTS FOR TREATING METABOLIC DISORDERS” (The University of Toledo, priority 2021, published 2024).
# Test system: PDX1-BIRC5-Survivin axis
smiles,measurement,value
"CCC(C)(C)C(=O)OC1CC(C)C=C2C=CC(C)C(CCC(O)CC(O)CC(=O)NO)C21 (stereo not shown) [Sim-CONHOH, Simvastatin-NHOH]",activity in the PDX1-BIRC5-Survivin bioassays,active
